According to PMC3997752, “Molecular characterization of Plasmodium falciparum uracil-DNA glycosylase and its potential as a new anti-malarial drug target” (Malaria Journal, 2014):

Experiments:
human UDG = test system: human UDG; design: method as in PMID 8391260; details: purified human HeLa UDG; cited from earlier work
recombinant PfUDG = recombinant PfUDG (Plasmodium falciparum, UniProt Q8ILU6, P157T); assay: Inhibition of recombinant PfUDG activity (32P-labelled oligo-U glycosylase assay); format: biochemical; details: for Inhibitory effect of UGI on recombinant PfUDG: 1:1 molar ratio of PfUDG and UGI
Method: (§1) The UDG activity assay (20 μl) consisted of standard reaction buffer containing 20 mM Tris–HCl pH 8.0, 1 mM DTT, 1 mM EDTA, 50 mM NaCl, 100 μg/ml BSA, 10 pmol ^32P-labelled oligo-U, and 20 ng of PfUDG at 37°C for 20 min. The glycosylase activity was stopped by heating at 100°C for 1 min, the resulting apurinic/apyrimidinic site (AP site) was incised by hot alkaline treatment with 0.1 M NaOH (final concentration) at 95°C for 10 min, and the reaction was neutralized with 0.1 M HCl (final concentration). The AP lyase activity assay of PfUDG was examined under the same condition as UDG activity assay except without hot alkaline treatment. Reaction products were analysed on 8 M urea-16% denaturing PAGE and exposed to X-ray film for autoradiography for visualization. The radioactive intensity of sliced substrate and product bands from the gel were measured in a 1450 MicroBeta® Trilux Liquid Scintillation Counter (Perkin Elmer) as counts per minute (cpm). The amounts of substrate and product (pmol) were determined from radioactive intensity. One unit of activity is defined as the amount of PfUDG required for releasing 1 pmol of uracil in 1 min at 37°C in standard reaction buffer (20 mM Tris–HCl pH 8.0, 50 mM NaCl, 1 mM EDTA, 1 mM DTT, and 100 μg/ml BSA) with ^32P-labelled single stranded oligo-U substrate.
Two types of UDG inhibitors, UGI protein and synthetic uracil-derived compounds, were tested for their inhibitory effects on PfUDG. UGI protein of B. subtilis bacteriophage PBS1 (New England BioLabs) was used against native and recombinant PfUDG with 10 pmol ^32P-labelled single stranded oligo-U in the standard reaction buffer at 37°C for 20 min. The synthetic uracil-derived compounds were also used at various concentrations (5–640 μM) with 20 ng of recombinant PfUDG and 10 pmol ^32P-labelled single stranded oligo-U in the standard reaction buffer at 37°C for 20 min. The same 0.4% (v/v final concentration) of DMSO was used as solvent control to determine its effects on enzyme activity. The dose–response curves of relative activities of PfUDG and various compound concentrations were generated, and half-maximal inhibitory concentration (IC50), the concentration of compound to inhibit enzyme activity by 50%, was obtained using SigmaPlot 12.0.

P. falciparum K1 strain = assay: Inhibition of parasite growth in vitro, SYBR Green I based assay; format: cell-based; details: Plasmodium falciparum, synchronized ring stage K1 strain
Method: The synchronized ring stage of P. falciparum K1 strain was prepared from mixed stage parasite culture by 5% D-sorbitol treatment. The ring stage parasite was then mixed with culture medium containing RPMI 1640 supplemented with 10% human serum. Various concentrations of each uracil-derived compound were tested at 2-fold serial dilutions in triplicate. Their inhibitory effects on parasite growth were determined by SYBR Green I based assay. The fluorescent intensity was measured by Varioskan Flash Multimode Reader (Thermo Scientific, Vantaa, Finland) with excitation and emission wavelengths of 485 and 535 nm, respectively. The percentage of fluorescent intensity at each compound concentration compared with negative control was indicative of the parasite growth. The dose–response curves of fluorescent intensity and compound concentrations were generated, and IC50, the concentration of compound to inhibit parasite growth by 50%, was obtained using SigmaPlot 12.0.

[1] = Cytotoxicity test, MTT colorimetric assay; format: cell-based; details: human, HepG2 cells
Method: The uracil-derived compounds showing inhibitory effects on PfUDG were assayed for cytotoxicity to human hepatocyte carcinoma cell line ATCC HB 8665 (HepG2) by in vitro cytotoxicity test. The methylthiazol tetrazolium (MTT)-dye based colorimetric microtitration assay was used for detecting cell survival based on the metabolism of tetrazolium to formazan by viable cells. The OD of formazan was measured by a Molecular Devices Microplate Reader (Molecular Devices, CA, USA) at a wavelength of 570 nm. The OD570 represented the cell survival, and the percentage of cell survival at each compound concentration was determined by comparing with the OD570 of negative control lacking compounds. The dose–response curves of % cell survival, and compound concentrations and IC50 were obtained. IC50 representing the concentration of compounds providing 50% cell survival indicated the cytotoxicity of compounds.

HSV-1 UDG = test system: HSV-1 UDG; design: method as in PMID 8391260; details: HSV-1 UDG purified from HSV-1-infected HeLa cells; cited from earlier work
native PfUDG = assay: Inhibition of native PfUDG activity by UGI (32P-labelled oligo-U glycosylase assay); format: biochemical, Plasmodium falciparum; details: 1:1 molar ratio of PfUDG and UGI
Method: as §1, with “substrate. […]” for “substrate.”

[2] = listed as uracil glycosylase inhibitor protein

Chain of recombinant PfUDG (Q8ILU6 whole entry P157T): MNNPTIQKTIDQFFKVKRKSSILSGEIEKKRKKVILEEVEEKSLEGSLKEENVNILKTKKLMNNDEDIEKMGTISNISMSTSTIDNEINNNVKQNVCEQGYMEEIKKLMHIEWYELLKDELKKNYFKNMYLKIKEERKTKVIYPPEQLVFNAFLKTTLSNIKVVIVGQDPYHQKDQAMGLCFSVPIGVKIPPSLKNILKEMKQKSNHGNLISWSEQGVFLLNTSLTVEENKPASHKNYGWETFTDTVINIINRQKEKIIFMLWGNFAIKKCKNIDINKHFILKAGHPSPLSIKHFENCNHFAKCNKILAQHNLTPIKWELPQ

Molecule	IC50 (recombinant PfUDG)	IC50 (P. falciparum K1 strain)	IC50 (HSV-1 UDG)	other results
CCCCCCCCc1ccc(Nc2cc(=O)[nH]c(=O)[nH]2)cc1 [6-(4-n-octylanilino)uracil, 6-(4-n-Octylanilino)uracil]				IC50 (human UDG): > 300 µM
O=c1cc(NNc2ccccc2)[nH]c(=O)[nH]1 [compound 2, 6-(Phenylhydrazino)uracil]	77.5 µM	12.8 µM		IC50 [1]: 27.5 ± 4.58 µM
CCCCCCCc1ccc(Nc2cc(=O)[nH]c(=O)[nH]2)cc1 [compound 3, 6-(p-n-Heptylanilino)uracil]	> 400 µM	5 µM	20 µM	
Cc1ccc(Nc2cc(=O)[nH]c(=O)[nH]2)cc1 [compound 4, 6-(4-Methylanilino)uracil]	> 400 µM	7.1 µM		
CCCc1ccc(Nc2cc(=O)[nH]c(=O)[nH]2)cc1 [compound 5, 6-(p-n-Propylanilino)uracil]	> 400 µM	7.9 µM		
O=c1cc[nH]c(=O)[nH]1 [compound 6, Uracil]	> 400 µM	10 µM		
CCCCc1ccc(Nc2cc(=O)[nH]c(=O)[nH]2)cc1 [compound 7, 6-(p-n-Butylanilino)uracil]	> 400 µM	10 µM	150 µM	
CCc1cc(Nc2cc(=O)n(CCCCO)c(=O)[nH]2)ccc1C [compound 8, 3-(4-Hydroxybutyl)-6-(3-ethyl-4-methylanilino)uracil]	> 400 µM	10.2 µM		
CCCCCc1ccc(Nc2cc(=O)[nH]c(=O)[nH]2)cc1 [compound 9, 6-(p-n-Pentylanilino)uracil]	> 400 µM	10.5 µM	30 µM	
CC(C)CCc1ccc(Nc2cc(=O)[nH]c(=O)[nH]2)cc1 [compound 10, 6-(p-i-Pentylanilino)uracil]	> 400 µM	11 µM	140 µM	
CC(C)c1ccc(Nc2cc(O)nc(O)n2)cc1 [compound 11, 6-(p-i-Propylanilino)uracil]	> 400 µM	12.6 µM		
CC(C)Cc1ccc(Nc2cc(=O)[nH]c(=O)[nH]2)cc1 [compound 12, 6-(p-i-Butylanilino)uracil]	> 400 µM	16.5 µM		
UGI: UGI protein of B. subtilis bacteriophage PBS1 (New England BioLabs), a well-known UDG inhibitor (protein, UniProt P14739 1-84, looked up) Uracil-DNA glycosylase …: MTNLSDIIEKETGKQLVIQESILMLPEEVEEVIGNKPESDILVHTAYDESTDENVMLLTSDAPEYKPWALVIQDSNGENKIKML				Inhibitory effect of UGI on recombinant PfUDG (recombinant PfUDG): completely inhibited; Inhibitory effect of UGI on recombinant PfUDG (recombinant PfUDG; [2]): inhibited; Inhibitory effect of UGI on native PfUDG (native PfUDG): completely inhibited; Inhibitory effect of UGI on native PfUDG (native PfUDG; [2]): inhibited
